Assay results taken from publication PMC10347550, “Cyclic Ruthenium-Peptide Conjugates as Integrin-Targeting Phototherapeutic Prodrugs for the Treatment of Brain Tumors” (Journal of the American Chemical Society, 2023).
pEC50: −log10 of the molar value.

Tests used:
subcutaneous U87MG tumor = experiment: In vivo tumor inhibition study; set-up: species or system mice; settings: for TUNEL staining of tumor slices: day 7, combined with 520 nm laser irradiation; for effect of light irradiation on tumor growth, light group compared to dark group: single i.v. dose day 0 ([1]Cl2 7.7 mg/kg, [2]Cl2 5 mg/kg), 520 nm laser 60 J/cm^2 at DLI 12 h, tumor volume over 15 days
Description: (§1) All animal studies were approved by the Institutional Animal Care and Use Committee of the US National Institutes of Health and were performed according to the relevant guidelines (8th edition, 2011). Female BALB/c nude mice (6 weeks old) were purchased from Shanghai SLAC Laboratory Animal Co. LTD (Shanghai, China). Tumor-bearing mice were obtained by subcutaneously injecting U87MG tumor cells (2 × 10^6 cells per mouse, dispersed in 100 μL of FBS) into the right hind limb and waiting for 15 days until the tumor volume reached 50–100 mm^3.
The mice bearing U87MG solid tumors were first randomly divided into 6 groups (N = 5): PBS, light, [1]Cl2, [2]Cl2, [1]Cl2 + light, and [2]Cl2 + light. The injectable solution of [1]Cl2 or [2]Cl2 was obtained by diluting the stock solution of the compound in DMSO (10 mg/mL) 10 times by RPMI-1640 medium containing 10% FBS, 100 units/mL penicillin, and 100 μg/mL streptomycin. The injection doses of [1]Cl2 and [2]Cl2 were set as 7.7, 5 mg/kg, respectively (injection volume = 100 μL of the same molar weight of Ru in the last four groups). In groups 2, 5, and 6, laser irradiation (520 nm, 100 mW/cm^2, 5 min) was carried out twice at 12 h post-injection, with a 5 min interval. Accordingly, the total laser dose for each illumination was 100 mW/cm^2, 10 min, and 60 J/cm^2. Treatments in all groups were carried out only once on day 0. Digital photos of tumor-bearing mice, the tumor size (length and width, measured with a caliper), and mouse body weight in all groups were recorded every third day. The tumor volume was calculated according to the standard formula: 0.5 × length × width^2. Both the average tumor volume and body weight were followed for 15 days. On day 7, one mouse from each group was sacrificed and then the tumor tissue was dissected and fixed with 10% paraformaldehyde. The tumor cell damage and apoptosis and necrosis conditions were evaluated by H&E or TUNEL stained protocols. On day 15 (the end of the tumor treatment period), all nude mice were humanly sacrificed, and the main organs (heart, liver, spleen, kidney, and lung) and tumors were resected. Digital photographs of tumors in each group were immediately obtained. All normal tissues were fixed with 10% paraformaldehyde and further analyzed in accordance with the H&E staining protocol, to estimate their off-target side effect after various treatments.

U87MG cells = experiment: 2D cytotoxicity assay, 24 h DLI & no wash, SRB endpoint; type: cell-based, human; settings: normoxic 2D monolayer U87MG; for PI: mixture of Δ and Λ isomers (Figure S34a); for pEC50: mixture of Δ and Λ isomers, green light 520 nm, 13.1 J/cm^2 (Figure S34a), read-out: EC50,light
Description: For each complex, two identical plates were prepared, one of which was irradiated with light, while the other was used as a dark control. […] Finally, at t = 96 h, 100 μL of cold trichloroacetic acid (10% w/v) was added to each well to fix the cells, and all plates were then transferred to a 4 °C refrigerator for 48 h before performing an SRB cell quantification endpoint assay.[72] Trichloroacetic acid was first removed and each plate was gently washed with demi water 3–5 times. Then, each well was dried in the air, and 100 μL of 0.6% SRB solution (0.6% w/v in 1% v/v acetic acid/H2O solution) was added into each well where it was allowed to stain for 30 min. Then, the plates were washed 3–5 times using an acetic acid solution (1% v/v). Once the plate was washed it was allowed to dry overnight. Then, 200 μL of 10 mM Tris base buffer was added to each well and the plate was allowed to sit on an orbital shaker for 0.5–16 h. After mixing, the absorbance of each well was determined by an M1000 Tecan Reader, reading at 510 nm. All experiments were conducted in independent biological triplicate. The obtained data were analyzed with Graphpad Prism 5 using the dose–response two-parameter Hill slope equation (eq 1) to obtain the half-maximal effective concentrations EC50 (defined as the concentration of drug that kills 50% of cells, compared to the untreated control). [drawing 1] 1

[1] = Biodistribution of Ru by ICP-OES; type: in vivo, mice; settings: for Ru content, Heart / Ru content, Kidney / Ru content, Liver / Ru content, Lung / Ru content, Spleen / Ru content, Tumor: U87MG tumor-bearing nude mice, ICP-OES, n = 3, ± SD
Description: as §1
The Blab/c nude mice bearing U87MG tumors were randomly assigned to two groups (N = 15) and received an intravenous injection of [1]Cl2 (7.7 mg/kg) or [2]Cl2 (5 mg/kg) at the same molar dose. Then, the mice were sacrificed at 2, 6, 12, 18, and 24 h post-injection (each time point contained 3 mice). The main organs (heart, liver, spleen, kidney, lung) and tumor tissue were dissected. Then, around 1 g of organs and tumors was lysed in a 7 mL mixture solution containing 5 mL of 65% HNO3 and 2 mL of 30% (w/w) H2O2 at 100 °C. After 12 h, all solutions had evaporated, and 5 mL of aqueous solution containing 2% HNO3 was added. The Ru content in all samples was measured by ICP-OES (JY-Horiba ICP-OES Ultima 2).

[2] = Nanoaggregation in Opti-MEM by DLS and TEM; type: physicochemical; settings: 50 μM in Opti-MEM with 2.5% FCS, dark, 24 h (Figure S20)
Description: DLS was used to determine the distribution of particles in complex solutions (50 μM) in Opti-MEM (Gibco complete medium 11058-021, supplemented with 0.2% v/v penicillin/streptomycin (P/S), and 1% v/v glutamine) with or without 2.5% fetal calf serum (FCS) proteins via a ZEN1600 Zetasizer Nano instrument (Malvern Instruments Limited) operated with a 633 nm laser.
The TEM experiments were carried out with a TEM JEOL 1010:100 kV transmission electron microscope using a Formvar/carbon-coated copper grid (Polysciences Inc.). For the preparation of samples, a 1 mM stock aqua solution was diluted to 50 μM by Opti-MEM, after which, each drop (15 μL) of the complex solution was deposited on a parafilm (Bemis, HS234526C). The grids (Electron Microscopy Sciences, 71137) were placed on top of the drops for 5 min and then the excess liquid on the grid was removed with filter paper and air dried for 2 h for the TEM measurement. The TEM measurements were carried out under vacuum conditions.

[3] = 2 h after i.v. injection of [1]Cl2 7.7 mg/kg or [2]Cl2 5 mg/kg
[4] = 6 h after i.v. injection of [1]Cl2 7.7 mg/kg or [2]Cl2 5 mg/kg
[5] = 12 h after i.v. injection of [1]Cl2 7.7 mg/kg or [2]Cl2 5 mg/kg
[6] = 18 h after i.v. injection of [1]Cl2 7.7 mg/kg or [2]Cl2 5 mg/kg
[7] = 24 h after i.v. injection of [1]Cl2 7.7 mg/kg or [2]Cl2 5 mg/kg

Compound | TUNEL staining of tumor slices (subcutaneous U87MG tumor) | effect of light irradiation on tumor growth, light group compared to dark group (subcutaneous U87MG tumor; n = 5) | PI (U87MG cells) | pEC50 (U87MG cells) | Ru content, Heart [1, 3] [%ID/g] | Ru content, Kidney [1, 3] [%ID/g] | Ru content, Liver [1, 3] [%ID/g] | Ru content, Lung [1, 3] [%ID/g] | Ru content, Spleen [1, 3] [%ID/g] | Ru content, Tumor [1, 3] [%ID/g] | Ru content, Heart [1, 4] [%ID/g] | Ru content, Kidney [1, 4] [%ID/g] | Ru content, Liver [1, 4] [%ID/g] | Ru content, Lung [1, 4] [%ID/g] | Ru content, Spleen [1, 4] [%ID/g] | Ru content, Tumor [1, 4] [%ID/g] | Ru content, Heart [1, 5] [%ID/g] | Ru content, Kidney [1, 5] [%ID/g] | Ru content, Liver [1, 5] [%ID/g] | Ru content, Lung [1, 5] [%ID/g] | other results
[Ru(Ph2phen)2(κ^S,κ^N-(Ac-MRGDH-NH2))]Cl2 (sidechain bridge or staple) [[1]Cl2, mixture of diastereoisomers used for the in vivo study] | induced outstanding apoptosis of tumor cells | much stronger tumor growth suppression | 16 | 5.62 | 2.2 ± 0.4 | 3.2 ± 0.3 | 40.2 ± 2.8 | 1.5 ± 0.2 | 1.9 ± 0.1 | 2.0 ± 0.5 | 1.8 ± 0.3 | 2.0 ± 0.2 | 29.0 ± 1.6 | 1.6 ± 0.2 | 2.1 ± 0.5 | 7.3 ± 0.4 | 1.8 ± 0.2 | 1.7 ± 0.3 | 16.5 ± 3.5 | 1.6 ± 0.2 | antitumor efficiency compared to [2]Cl2 + light (subcutaneous U87MG tumor; single i.v. dose 7.7 mg/kg + 520 nm laser 60 J/cm^2 at DLI 12 h, 15 days, n = 5): better antitumor efficiency; Ru content, Spleen [1, 5]: 2.2 ± 0.4 %ID/g; Ru content, Tumor [1, 5]: 15.7 ± 1.3 %ID/g; amount of ruthenium in the tumor higher than for the group treated with [2]Cl2 ([1]; 12 h after i.v. injection, same molar dose, P < 0.01): 28%; Ru content, Heart [1, 6]: 1.9 ± 0.2 %ID/g; Ru content, Kidney [1, 6]: 1.9 ± 0.2 %ID/g; Ru content, Liver [1, 6]: 14.4 ± 4.3 %ID/g; Ru content, Lung [1, 6]: 1.8 ± 0.3 %ID/g; Ru content, Spleen [1, 6]: 1.9 ± 0.3 %ID/g; Ru content, Tumor [1, 6]: 7.2 ± 0.5 %ID/g; Ru content, Heart [1, 7]: 1.8 ± 0.1 %ID/g; Ru content, Kidney [1, 7]: 1.8 ± 0.2 %ID/g; Ru content, Liver [1, 7]: 6.1 ± 1.2 %ID/g; Ru content, Lung [1, 7]: 1.7 ± 0.2 %ID/g; Ru content, Spleen [1, 7]: 1.7 ± 0.2 %ID/g; Ru content, Tumor [1, 7]: 4.1 ± 1.0 %ID/g
CSCc1ccccn1.[Cl-].[Cl-].[Ru+2].c1ccc(-c2ccnc3c2ccc2c(-c4ccccc4)ccnc23)cc1.c1ccc(-c2ccnc3c2ccc2c(-c4ccccc4)ccnc23)cc1 [[2]Cl2, rac-[Ru(Ph2phen)2(mtmp)]Cl2, reference compound] | induced outstanding apoptosis of tumor cells | statistically nonsignificant | 6 | 6.52 | 2.0 ± 0.3 | 3.2 ± 0.4 | 40.5 ± 3.3 | 1.5 ± 0.3 | 4.6 ± 0.4 | 1.8 ± 0.3 | 1.9 ± 0.5 | 2.0 ± 0.4 | 29.5 ± 1.9 | 1.6 ± 0.2 | 2.2 ± 0.5 | 6.5 ± 0.5 | 1.8 ± 0.3 | 1.7 ± 0.2 | 16.3 ± 3.3 | 1.7 ± 0.2 | nanoparticle formation (DLS) [2]: not; Ru content, Spleen [1, 5]: 2.2 ± 0.3 %ID/g; Ru content, Tumor [1, 5]: 12.3 ± 1.5 %ID/g; Ru content, Heart [1, 6]: 1.7 ± 0.2 %ID/g; Ru content, Kidney [1, 6]: 1.9 ± 0.2 %ID/g; Ru content, Liver [1, 6]: 14.6 ± 2.3 %ID/g; Ru content, Lung [1, 6]: 1.7 ± 0.1 %ID/g; Ru content, Spleen [1, 6]: 1.6 ± 0.2 %ID/g; Ru content, Tumor [1, 6]: 2.8 ± 0.6 %ID/g; Ru content, Heart [1, 7]: 1.7 ± 0.2 %ID/g; Ru content, Kidney [1, 7]: 1.5 ± 0.1 %ID/g; Ru content, Liver [1, 7]: 7.3 ± 0.8 %ID/g; Ru content, Lung [1, 7]: 1.7 ± 0.1 %ID/g; Ru content, Spleen [1, 7]: 1.7 ± 0.2 %ID/g; Ru content, Tumor [1, 7]: 1.7 ± 0.1 %ID/g
